{"source": "patent US6303591A", "about": "“21-hydroxy-6,19-oxidoprogesterone (21OH-6OP) and its use as medicament for treating excess of glucocorticoids” (Applied Research Systems ARS Holding NV, priority 1997, dated 2001)", "key": {"type II sites (GR)": {"target": "T1, type II sites (GR) (Rattus norvegicus, UniProt P06536)", "T1 construct": "type II receptors in kidney cytosols; from tissue; host or cells: kidney cytosol, adrenalectomized male Sprague-Dawley rats", "T1 sequence (P06536 1-795)": "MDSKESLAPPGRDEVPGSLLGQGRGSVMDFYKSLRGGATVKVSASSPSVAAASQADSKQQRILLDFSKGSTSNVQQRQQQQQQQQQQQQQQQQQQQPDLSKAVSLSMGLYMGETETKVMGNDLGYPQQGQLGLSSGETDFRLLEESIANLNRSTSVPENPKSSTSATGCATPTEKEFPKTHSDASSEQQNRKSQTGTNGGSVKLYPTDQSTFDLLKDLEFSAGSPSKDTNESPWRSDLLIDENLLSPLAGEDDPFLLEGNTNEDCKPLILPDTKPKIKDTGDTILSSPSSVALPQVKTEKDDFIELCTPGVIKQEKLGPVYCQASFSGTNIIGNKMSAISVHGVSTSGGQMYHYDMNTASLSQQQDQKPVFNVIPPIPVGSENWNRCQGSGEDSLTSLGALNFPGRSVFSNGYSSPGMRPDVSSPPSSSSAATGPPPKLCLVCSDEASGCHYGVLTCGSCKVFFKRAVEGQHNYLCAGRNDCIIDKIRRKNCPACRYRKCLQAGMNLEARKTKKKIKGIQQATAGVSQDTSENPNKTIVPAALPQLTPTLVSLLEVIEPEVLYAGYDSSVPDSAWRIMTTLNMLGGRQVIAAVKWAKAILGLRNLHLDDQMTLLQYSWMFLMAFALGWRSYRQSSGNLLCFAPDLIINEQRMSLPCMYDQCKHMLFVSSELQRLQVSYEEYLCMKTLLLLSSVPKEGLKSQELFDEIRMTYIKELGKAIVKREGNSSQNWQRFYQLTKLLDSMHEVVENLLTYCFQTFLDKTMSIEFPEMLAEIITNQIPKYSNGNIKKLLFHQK", "test": "tracer binding (Scatchard) to kidney type II sites (GR)", "details": "kidney cytosol, 2.5 μM 21OH-6OP", "experimental": "(§1) Binding Assay: Adrenalectomized male Sprague-Dawley rats were bled to death by heart puncture. Cold 0.9% NaCI was injected profusely through the aorta until organs were completely blanched. Thymuses were used as a source of GR and kidneys as a source of MR. Homogenization and incubation conditions were performed as previously described, (14) and (15), respectively. Briefly, homogenates performed in cold TEGM buffer at pH 7.4 (0.1 M Tris-HCl, 10 mM EDTA, 10 mM α-mercaptoethanol, 20 mM Na2 MoO4, 25% glycerol, 0.1 mM PMSF, 2.0 TIU/ml aprotinin and 1 mg% Leupeptin) were centrifuged at 37,000 rev. for 30 min at 0° C. Supernatants from this centrifugation are referred to as \"cytosol\". […] (^3 H)-P4 binding to uterus PR was assayed on immature female rats according to Jordan et al (16).\nTo study the binding of ALDO to kidney- MR without the competitive influence of the relatively more abundant GR, GR was removed with the specific ligand RU28362 (7).\nThe calculated Kd for type I sites in different conditions ranges between 0.4 and 1 nM (Table 1) which is at least eighty times higher than the affinity for type II sites."}, "liver glycogen": {"tested_on": "liver glycogen", "test": "liver glycogen deposition in vivo, adrenalectomized rats", "design": "species or system rat", "details": "FIG. 3-A; 100 μg steroid/100 g body weight", "experimental": "FIG. 3: Biological Properties of 21OH-6OP: A) Glycogen storage in vivo: 100 μg steroid/100 g body weight of male rats were injected as indicated in Example 1. Liver glycogen was purified and quantified with Krisman's reagent (17). Controls were injected with vehicle. Results are expressed as means±SEM (n=6). (*): different from controls P<0.02. B) TAT induction in vitro: rat hepatocytes were incubated for 5 h in HAM-F12 medium in the presence of 100 nM steroid and TAT activity was measured. Results are expressed as percentage of enzyme activity (means±SEM, n=4) over controls incubated in the presence of vehicle. (*) different from controls P<0.01. C) Sodium-retaining activity: adrenalectomized rats were treated with the indicated dose of steroids. Results are expressed as the ratio of sodium-excretion rates of steroid-injected animals to the excretion rates of rats injected with vehicle.\nBioassay : Liver glycogen deposition was measured on adrenalectoniized male Sprague-Dawley rats (180-220 g) as follows: steroids were dissolved in ethanol/propylene glycol/0.9% NaCl solution (3:3:34) and 100 μg steroid/l00 g body weight were injected i.m. the previous night. On the morning of the experiment this dose was reinjected intraperitoneally. Three hours later the rats were killed by cervical dislocation and livers were immediately removed. Glycogen purification and quantification were carried out according to Krisman's method (17). Na^+ -retaining properties were measured as described (5). Tyrosine aminotransferase (TAT) was induced in rat hepatocytes isolated by the procedure of Fry et al (18). TAT activity was determined according to Granner and Tomkins (19)."}, "[1]": {"target": "T2, GR from rat thymus (thymus cytosol) (Rattus norvegicus, UniProt P06536)", "T2 construct": "Thymuses were used as a source of GR; from tissue; host or cells: thymus cytosol, adrenalectomized male Sprague-Dawley rats", "T2 sequence (P06536 1-795)": "T1 sequence (P06536 1-795)", "test": "displacement of (^3 H)-B binding to GR, rat thymus cytosol", "experimental": "as §1\n(§2) The displacement curve of 6,19-oxidoprogesterone is included for comparative purposes."}, "[2]": {"target": "T3, CBG partially purified from rat plasma (Rattus norvegicus, UniProt P31211)", "T3 construct": "CBG partially purified from rat plasma; from tissue; host or cells: rat plasma, partially purified", "T3 sequence (P31211 23-396)": "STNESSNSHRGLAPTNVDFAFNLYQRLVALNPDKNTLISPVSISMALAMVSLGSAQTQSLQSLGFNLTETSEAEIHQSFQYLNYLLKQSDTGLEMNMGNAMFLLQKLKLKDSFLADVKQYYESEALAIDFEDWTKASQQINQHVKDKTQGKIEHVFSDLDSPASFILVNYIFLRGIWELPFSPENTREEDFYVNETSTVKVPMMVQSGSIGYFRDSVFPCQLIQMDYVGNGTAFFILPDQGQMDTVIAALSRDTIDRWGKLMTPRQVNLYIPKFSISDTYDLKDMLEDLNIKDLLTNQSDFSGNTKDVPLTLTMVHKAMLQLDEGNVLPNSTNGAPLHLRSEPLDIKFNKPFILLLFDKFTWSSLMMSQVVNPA", "test": "displacement of (^3 H)-B binding to partially purified CBG", "experimental": "Relative binding affinity (RBA) for partially purified CBG was determined by steroid competition for (^3 H)-B binding as described previously (14).\nas §2"}}, "note": "Entries after “also recorded” stand apart in the source; their conditions may differ.", "data": [{"compound": "C[C@]12CC[C@H]3[C@@H](C[C@H]4OC[C@@]35CCC(=O)C=C45)[C@@H]1CC[C@@H]2C(=O)CO", "note": "[21OH-6OP, 21-hydroxy-6,19-oxidoprogesterone]", "values": [{"measurement": "masking of (^3 H)-ALDO cross-reaction with GR / block of type II receptors", "setting": "type II sites (GR)", "value": "able to mask the cross reaction of (^3 H)-ALDO with GR; also recorded: able to block type II receptors in kidney cytosols"}, {"measurement": "GC response: liver glycogen", "setting": "liver glycogen", "value": "neither 6OP nor 21OH-6OP evoke these responses"}, {"measurement": "increase of binding to GR by 21-hydroxyl, relative to 6OP", "setting": "[1]; 21OH-6OP vs 6OP", "value": "over 40 times"}, {"measurement": "saturation predicted according to mass action", "setting": "[1]; FIG. 2 a, predicted", "value": 95, "unit": "%"}, {"measurement": "tracer displacement", "setting": "[1]; FIG. 2 a, 720 min", "value": 75, "unit": "%"}, {"measurement": "Kd", "setting": "[1]; rat thymus cytosol, 5 nM (^3 H)-B, 12 h at 0° C., read-out: RBA for GR (Kd)", "value": 125, "unit": "nM"}, {"measurement": "increase of binding to CBG by 21-hydroxyl, relative to 6OP", "setting": "[2]; 21OH-6OP vs 6OP", "value": "hundred times"}, {"measurement": "inhibition at 2.5 µM", "setting": "[2]; 12 h, 2.5 μM, FIG. 2-B, read-out: block of CBG binding sites", "value": "~60", "unit": "%"}, {"measurement": "Kd", "setting": "[2]; partially purified CBG, (^3 H)-B, 12 h at 0° C., read-out: RBA for CBG (Kd)", "value": 1270, "unit": "nM"}]}]}
